Measured values as given in paper PMC11758220, “Identification of a Privileged Scaffold for Inhibition of Sterol Transport Proteins through the Synthesis and Ring Distortion of Diverse, Pseudo-Natural Products” (ACS Central Science, 2025).

Assays:
ORP2 = biological target: T1, ORP2 (Homo sapiens, UniProt Q9H1P3); assay: Effect on intrinsic protein fluorescence, ORP2; conditions: protein 1 µM, excitation 280 nm
T1 construct: ORP2(49-480); host or cells: E. coli BL21(DE3)
T1 sequence (Q9H1P3 49-480): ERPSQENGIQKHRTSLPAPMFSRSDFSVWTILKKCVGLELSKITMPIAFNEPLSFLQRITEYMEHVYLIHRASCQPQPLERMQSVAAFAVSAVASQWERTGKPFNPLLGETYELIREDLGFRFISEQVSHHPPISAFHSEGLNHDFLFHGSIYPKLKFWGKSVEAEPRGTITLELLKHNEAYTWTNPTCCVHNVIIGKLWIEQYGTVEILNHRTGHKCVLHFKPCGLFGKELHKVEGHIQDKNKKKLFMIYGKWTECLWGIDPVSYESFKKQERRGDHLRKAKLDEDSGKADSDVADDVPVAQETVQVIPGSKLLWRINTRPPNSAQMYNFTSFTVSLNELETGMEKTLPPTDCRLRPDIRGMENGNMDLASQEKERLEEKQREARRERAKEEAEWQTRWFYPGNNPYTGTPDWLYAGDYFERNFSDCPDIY
Description: (§1) Effect of spirooxepinoindoles on intrinsic protein fluorescence
(§2) Figure S12: Spirooxepinoindoles 21a and 15f affect intrinsic protein fluorescence in dose-dependent fashion:
(§3) Respective proteins (1 µM) were incubated with the compounds at different doses. Proteins were excited at 280 ± 10 nm and fluorescence spectra were measured from 315 ± 20 nm to 600 ± 20 nm with a step size of 2 nm. A) STARD1 and 21a. B) ORP1 and 21a. C) ORP2 and 21a. D) ORP2 and 15f.
(§4) (1 picture or pasted object on this page, not shown here)
(§5) Superdex 75 pg (Cytiva) using an ÄKTA Explorer (Cytiva) in buffer containing 10 mM Tris -HCl, pH 8, 150 mM NaCl, 5 % glycerol and 2 mM DTT.
(§6) Fluorescence intensity and polarisation
(§7) Fluorescence intensity and polarisation (FP) experiments were performed in a buffer containing 20 mM HEPES pH 7.5, 300 mM NaCl, 0.01 %v/v Tween-20, 0.5% glycerol and 2 mM DTT in a final volume of 30 µl in black, flat-bottom, non-binding 384-well plates (Corning). All compounds were dispensed using the LabCyte Echo 550 Liquid handler. […] For competition experiments, 20 nM 22-NBD-cholesterol or 80 nM 25-NBD-cholesterol was mixed with protein and incubated with desired concentrations of screening compounds (Table S4) The fluorescence polarisation signal was measured using a Spark Cyto multimode microplate reader (Tecan) with filters set at 485 ± 20 nm for excitation and at 535 ± 20 nm for emission. […]

ORP1 = biological target: T2, ORP1 (Homo sapiens, UniProt Q9BXW6); assay: Effect on intrinsic protein fluorescence, ORP1; conditions: protein 1 µM, excitation 280 nm
T2 construct: ORP1(534-950); host or cells: E. coli BL21(DE3)
T2 sequence (Q9BXW6 534-950): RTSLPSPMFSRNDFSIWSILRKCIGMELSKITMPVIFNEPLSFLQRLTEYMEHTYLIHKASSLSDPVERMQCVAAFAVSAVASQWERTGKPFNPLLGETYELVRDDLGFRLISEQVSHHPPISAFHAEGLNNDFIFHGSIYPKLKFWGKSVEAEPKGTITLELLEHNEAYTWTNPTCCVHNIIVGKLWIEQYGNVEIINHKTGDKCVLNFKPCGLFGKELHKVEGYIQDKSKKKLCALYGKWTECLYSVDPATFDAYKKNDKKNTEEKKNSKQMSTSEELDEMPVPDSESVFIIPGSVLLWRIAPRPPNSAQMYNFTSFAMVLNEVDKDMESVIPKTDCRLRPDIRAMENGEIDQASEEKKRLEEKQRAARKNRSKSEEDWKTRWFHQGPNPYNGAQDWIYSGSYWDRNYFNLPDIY
Description: as §1, §2, §3, §4, §5, §6, §7

STARD4 = biological target: T3, STARD4 (Homo sapiens, UniProt Q96DR4, C75S); set-up: method as in Depta et al.[43]; conditions: data reproduced; ref Depta et al.[43]; read-out: STARD4 Kd,app (DSF); cited from earlier work
T3 construct: STARD4(2-205; C75S); made in house; host or cells: E. coli BL21(DE3)
T3 sequence (Q96DR4 2-205 C75S): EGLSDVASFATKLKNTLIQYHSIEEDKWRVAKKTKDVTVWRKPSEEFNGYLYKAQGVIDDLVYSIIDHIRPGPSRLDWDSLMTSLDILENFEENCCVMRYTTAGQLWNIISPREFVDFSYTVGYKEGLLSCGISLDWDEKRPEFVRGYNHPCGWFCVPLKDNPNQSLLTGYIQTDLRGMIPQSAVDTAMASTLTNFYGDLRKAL

Compound | Quenching of intrinsic fluorescence of ORP2 (ORP2) | Quenching of intrinsic fluorescence of ORP1 (ORP1) | Kd (STARD4) [µM]
COc1ccc2c(c1)[C@@]13CC[C@@H]4C[C@@H](CC[C@@]41C)OC3=N2 [Compound 15f] | quenches the ORP2 protein fluorescence in a dose-dependent manner | – | –
C[C@]12CC[C@@H]3C[C@H]1CC[C@@]21C(=Nc2ccc(-c4ccccc4)cc21)O3 [Compound 21a] | dose-dependently quenches | dose-dependently quenches | –
CCN(CC)CCO[C@H]1CC[C@@]2(C)C(=CC[C@@H]3[C@@H]2CC[C@]2(C)C(=O)CC[C@@H]32)C1 [Compound U18666A, reference compound] | – | – | > 30
